Test results reported in BindingDB's records for doi:10.1016/j.bmc.2011.04.011 (University of Toyama, 2011).

Biological target: T1, Lysosomal acid glucosylceramidase (Bos taurus, UniProt Q2KHZ8)
T1 sequence (Q2KHZ8 whole entry): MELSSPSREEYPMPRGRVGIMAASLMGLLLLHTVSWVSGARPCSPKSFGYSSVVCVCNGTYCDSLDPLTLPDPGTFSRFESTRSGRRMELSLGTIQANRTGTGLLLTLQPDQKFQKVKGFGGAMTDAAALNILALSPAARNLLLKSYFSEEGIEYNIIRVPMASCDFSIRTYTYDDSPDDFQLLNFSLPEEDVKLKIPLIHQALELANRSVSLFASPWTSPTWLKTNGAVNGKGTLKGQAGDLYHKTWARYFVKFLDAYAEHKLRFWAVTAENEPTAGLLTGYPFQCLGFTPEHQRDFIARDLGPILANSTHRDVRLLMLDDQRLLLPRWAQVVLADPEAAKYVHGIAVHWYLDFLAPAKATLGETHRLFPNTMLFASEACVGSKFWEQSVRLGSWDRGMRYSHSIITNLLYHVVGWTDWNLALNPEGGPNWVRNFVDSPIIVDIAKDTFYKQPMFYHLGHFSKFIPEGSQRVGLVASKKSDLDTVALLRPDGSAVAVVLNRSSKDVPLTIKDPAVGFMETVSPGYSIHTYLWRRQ
Experiment: Inhibition of bovine liver beta-glucosidase assessed as production of 4-methylumbelliferone using 4-methylumbelliferyl beta-D-glucoside as substrate by spectrophotometry

| Compound | IC50 |
| --- | --- |
| OC[C@H]1CNC[C@@H](O)[C@@H]1O | 31 µM |
| OC[C@H]1NCC[C@H](O)[C@@H]1O [3-epifagomine] | 5.6 µM |
| OC[C@H]1NCC[C@@H](O)[C@@H]1O [(2R,3R,4R)-2-Hydroxymethyl-piperidine-3,4-diol] | 250 µM |
| OC[C@@H]1CNC[C@H](O)[C@H]1O [L-Isofagomine] | 611 µM |
